Data reported in patent US20240294519A1, “PYRROLO[2,3-b]PYRIDINE PGDH INHIBITORS AND METHODS OF MAKING AND USING” (EPIRIUM BIO INC., priority 2021, published 2024).

Biological target: T1, 15-PGDH/HPGD (Homo sapiens, UniProt P15428)
T1 construct: purchased R&D System 5660-DH
T1 sequence (P15428 1-266): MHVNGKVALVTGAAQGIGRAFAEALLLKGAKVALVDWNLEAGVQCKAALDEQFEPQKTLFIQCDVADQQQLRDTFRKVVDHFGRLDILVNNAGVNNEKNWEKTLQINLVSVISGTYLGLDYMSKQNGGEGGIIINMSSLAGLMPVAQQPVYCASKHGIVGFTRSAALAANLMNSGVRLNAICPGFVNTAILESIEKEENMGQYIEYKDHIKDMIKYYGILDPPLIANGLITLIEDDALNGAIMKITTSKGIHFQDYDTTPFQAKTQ
Assay: hPGDH inhibitor screening biochemical assay
Details: 10 nM enzyme, 15 μM PGE2, 0.25 mM NAD, fluorescence ex/em 340/485 nm
Description: A hydroxyprostaglandin dehydrogenase inhibition screening biochemical assay can be performed to assess the synthesized inhibitors provided herein. Provided herein is an exemplary biochemical assay for hPGDH inhibitor screening.
The in vitro biochemical assay can be performed in white, 384 plates in total 20 μl reaction volume consisting of 10 nM of 15-PGDH/HPGD (R&D System #5660-DH), 15 μM Prostaglandin E2 (Sigma, C8 t #P5640-10 MG) and 0.25 mM β-Nicotinamide adenine dinucleotide sodium salt (Sigma, C8 t #N0632-5G) made in reaction buffer (50 mM Tris-HCl, pH 7.5, 0.01% Tween 20) at 10-point dose response curve for test/tool compounds. Briefly, 5 μl (4×) of compounds solution and 5 μl (final concentration, 10 nM) of enzyme solution is added to white 384 well plates and incubated for 10 mins at 37° C. 5 μl (4×) of […] and 5 μl (4×) of β-Nicotinamide adenine dinucleotide sodium salt is added to the wells and incubated for 10 mins at room temperature. Fluorescence is recorded at ex/em=340 nm/485 nm. The percentage (%) inhibition of enzyme activity was determined relative to positive control (1% DMSO) and IC50 was calculated using GraphPad prism software (four parameter-variable slope equation).

Compound | IC50 [µM]
CC1CN(C(=O)c2cnc3c(ccn3-c3ccc(-c4ncn[nH]4)nc3)c2)CC(C)O1 (stereo not drawn) [Compound B-47, (1-(6-(1H-1,2,4-triazol-5-yl)pyridin-3-yl)-1H-pyrrolo[2,3-b]pyridin-5-yl)(2,6-dimethylmorpholino) methanone] | < 0.1
N=C(NN)c1ccc(-n2ccc3cc(C(=O)N4CCC(F)(F)CC4)cnc32)cn1 [Compound B-48, 5-(5-(4,4-difluoropiperidine-1-carbonyl)-1H-pyrrolo[2,3-b]pyridin-1-yl) picolinimidohydrazide] | < 0.1
CC1CN(C(=O)c2cnc3c(ccn3-c3ccc(-c4nc(N)n[nH]4)nc3)c2)CCO1 (stereo not drawn) [Compound B-49, (1-(6-(3-amino-1H-1,2,4-triazol-5-yl)pyridin-3-yl)-1H-pyrrolo [2,3-b]pyridin-5-yl)(2-methylmorpholino)methanone] | < 0.1
Nc1nnc(-c2ccc(-n3ccc4cc(C(=O)N5CCCC(F)(F)C5)cnc43)cc2)[nH]1 [Compound B-54] | < 0.1
CCOC(=O)Nc1cncc(-n2ccc3cc(C(=O)N4CCCC(F)(F)C4)cnc32)c1 [Compound B-55] | < 0.1
O=C(c1cnc2c(ccn2-c2ccc(-c3nnc[nH]3)nc2)c1)N1CCC2(CC1)CC2 [Compound B-56] | < 0.1
O=C(c1cnc2c(ccn2-c2cnn(CC(F)(F)F)c2)c1)N1CCCC(F)(F)C1 [Compound B-57] | < 0.1
CC(C)c1nnc(-c2ccc(-n3ccc4cc(C(=O)N5CCC(F)(F)CC5)cnc43)cc2)[nH]1 [Compound B-58] | < 0.1
O=C(c1cnc2c(ccn2-c2cnn(CC(F)(F)F)c2)c1)N1CCCC(C(F)(F)F)C1 (stereo not drawn) [Compound B-59] | 0.1 to 1
O=C(c1cnc2c(ccn2-c2ccc3nc(N4CCOCC4)nn3c2)c1)N1CCCC(F)(F)C1 [Compound B-60] | < 0.1
O=C(c1cnc2c(ccn2-c2ccc(-c3nnc[nH]3)cc2)c1)N1CCCC(F)(F)C1 [Compound B-61] | < 0.1
COCCn1cc(-n2ccc3cc(C(=O)N4CCC(F)(F)CC4)cnc32)cn1 [Compound B-62] | 0.1 to 1
COC(=O)Nc1cncc(-n2ccc3cc(C(=O)N4CCC[C@H](C(F)(F)F)C4)cnc32)c1 [Compound B-65] | < 0.1
COC(=O)Nc1cncc(-n2ccc3cc(C(=O)N4CCC[C@@H](C(F)(F)F)C4)cnc32)c1 [Compound B-66] | < 0.1
Nc1nnc(-c2cccc(-n3ccc4cc(C(=O)N5CCC(F)(F)CC5)cnc43)c2)[nH]1 [Compound B-71] | < 0.1
CN(C)c1nnc(-c2cccc(-n3ccc4cc(C(=O)N5CCC(F)(F)CC5)cnc43)c2)[nH]1 [Compound B-73] | < 0.1
Cc1nnc(-c2ccc(-n3ccc4cc(C(=O)N5CCC(F)(F)CC5)cnc43)cc2)[nH]1 [Compound B-74] | < 0.1
C[C@@H]1CN(C(=O)c2cnc3c(ccn3-c3ccc(N4CCOC4=O)nc3)c2)CCC1(F)F [Compound B-75] | < 0.1
C[C@H]1CN(C(=O)c2cnc3c(ccn3-c3ccc(N4CCOC4=O)nc3)c2)CCC1(F)F [Compound B-76] | < 0.1
CN(C)c1nnc(-c2ccc(-n3ccc4cc(C(=O)N5CCC(F)(F)CC5)cnc43)cc2)[nH]1 [Compound B-77] | < 0.1

Compound | IC50 [µM]
Nc1nnc(-c2ccc(-n3ccc4cc(C(=O)N5CCC(F)(F)CC5)cnc43)cc2)[nH]1 [Compound B-78, (1-(4-(5-amino-4H-1,2,4-triazol-3-yl)phenyl)-1H-pyrrolo[2,3-b]pyridin-5-yl)(4,4-difluoropiperidin-1-yl)methanone] | < 0.1
CN1CCN(c2ccc(-n3ccc4cc(C(=O)N5CCC(F)(F)CC5)cnc43)cn2)C1=O [Compound B-91] | < 0.1
O=C(Nc1cncc(-n2ccc3cc(C(=O)N4CCC(F)(F)CC4)cnc32)c1)C1CC1 [Compound B-93] | < 0.1
O=C(c1cnc2c(ccn2-c2cnn(C3CCOCC3)c2)c1)N1CCC(F)(F)CC1 [Compound B-94] | < 0.1
CCn1cc(-n2ccc3cc(C(=O)N4CCC(F)(F)CC4)cnc32)cn1 [Compound B-95] | < 0.1
NC(=O)c1ccc(-n2ccc3cc(C(=O)N4CCC(F)(F)CC4)cnc32)cn1 [Compound B-104] | < 0.1
N#Cc1ccc(-n2ccc3cc(C(=O)N4CC[C@@H](F)C4)cnc32)cc1 [Compound B-126] | < 0.1
N#Cc1ccc(-n2ccc3cc(C(=O)N4CC[C@H](F)C4)cnc32)cc1 [Compound B-127] | < 0.1
O=C(c1cnc2c(ccn2-c2ccc(-c3cnc[nH]3)cc2)c1)N1CCC(F)(F)CC1 [Compound B-226] | < 0.1
O=C(c1cnc2c(ccn2-c2ccc(-c3nnc[nH]3)cc2)c1)N1CCSCC1 [Compound B-227] | < 0.1
O=C(c1cnc2c(ccn2-c2ccc(-c3nnc[nH]3)cc2)c1)N1CCC[C@@H](C(F)(F)F)C1 [Compound B-228] | < 0.1
O=C(c1cnc2c(ccn2-c2ccc(-c3nnc[nH]3)cc2)c1)N1CCC[C@H](C(F)(F)F)C1 [Compound B-229] | < 0.1
CCOC(=O)Nc1cncc(-n2ccc3cc(C(=O)N4CCSCC4)cnc32)c1 [Compound B-230] | < 0.1
O=C(c1cnc2c(ccn2-c2ccc(-c3cn[nH]c3)cc2)c1)N1CCC(F)(F)CC1 [Compound B-233] | < 0.1
O=C(c1cnc2c(ccn2-c2cnn(CC(F)F)c2)c1)N1CCC(F)(F)CC1 [Compound B-235] | 0.1 to 1
O=C(Nc1cncc(-n2ccc3cc(C(=O)N4CCC(F)(F)CC4)cnc32)c1)C1CCC(F)(F)CC1 [Compound B-237] | < 0.1
CCOC(=O)Nc1cncc(-n2ccc3cc(C(=O)N4CCCC(C(F)(F)F)C4)cnc32)c1 (stereo not drawn) [Compound B-238] | < 0.1
CC1(O)CCCN(C(=O)c2cnc3c(ccn3-c3ccc(-c4nnc[nH]4)c(F)c3)c2)C1 (stereo not drawn) [Compound B-239] | < 0.1
CC1(O)CCCN(C(=O)c2cnc3c(ccn3-c3cc(Cl)cc(-c4nnc[nH]4)c3)c2)C1 (stereo not drawn) [Compound B-240] | < 0.1
CC1(O)CCCN(C(=O)c2cnc3c(ccn3-c3cc(F)cc(-c4nnc[nH]4)c3)c2)C1 (stereo not drawn) [Compound B-241] | < 0.1

Compound | IC50 [µM]
CO[C@H]1CCCN(C(=O)c2cnc3c(ccn3-c3cc(F)cc(-c4nnc[nH]4)c3)c2)C1 [Compound B-242] | < 0.1
C[C@@]1(O)CCCN(C(=O)c2cnc3c(ccn3-c3ccc(-c4nnc[nH]4)cc3)c2)C1 [Compound B-243] | < 0.1
C[C@@]1(O)CCCN(C(=O)c2cnc3c(ccn3-c3cccc(-c4nnc[nH]4)c3)c2)C1 [Compound B-244] | < 0.1
CO[C@@H]1CCCN(C(=O)c2cnc3c(ccn3-c3ccc(-c4nnc[nH]4)c(Cl)c3)c2)C1 [Compound B-245] | < 0.1
CO[C@@H]1CCCN(C(=O)c2cnc3c(ccn3-c3ccc(-c4nnc[nH]4)c(F)c3)c2)C1 [Compound B-246] | < 0.1
CO[C@H]1CCCN(C(=O)c2cnc3c(ccn3-c3ccc(-c4nnc[nH]4)c(F)c3)c2)C1 [Compound B-247] | < 0.1
C[C@]1(O)CCCN(C(=O)c2cnc3c(ccn3-c3ccc(-c4nnc[nH]4)cc3)c2)C1 [Compound B-248] | < 0.1
C[C@]1(O)CCCN(C(=O)c2cnc3c(ccn3-c3cccc(-c4nnc[nH]4)c3)c2)C1 [Compound B-249] | < 0.1
CO[C@H]1CCCN(C(=O)c2cnc3c(ccn3-c3cc(Cl)cc(-c4nnc[nH]4)c3)c2)C1 [Compound B-250] | < 0.1
O=C(c1cnc2c(ccn2-c2cc(Cl)cc(-c3nnc[nH]3)c2)c1)N1CCSCC1 [Compound B-251] | < 0.1
CO[C@H]1CCCN(C(=O)c2cnc3c(ccn3-c3ccc(-c4nnc[nH]4)c(Cl)c3)c2)C1 [Compound B-252] | < 0.1
O=C(c1cnc2c(ccn2-c2ccc(-c3nnc[nH]3)c(Cl)c2)c1)N1CCSCC1 [Compound B-253] | < 0.1
O=C(c1cnc2c(ccn2-c2ccc(-c3nnc[nH]3)c(F)c2)c1)N1CCSCC1 [Compound B-254] | < 0.1
Cc1cc(-n2ccc3cc(C(=O)N4CCC(F)(F)CC4)cnc32)ccc1-c1nnc[nH]1 [Compound B-255] | < 0.1
CC(C)OC(=O)Nc1cncc(-n2ccc3cc(C(=O)N4CCSCC4)cnc32)c1 [Compound B-256] | < 0.1
O=C(c1cnc2c(ccn2-c2cc(Cl)cc(-c3nnc[nH]3)c2)c1)N1CC[S+]([O-])CC1 [Compound B-257] | < 0.1
CC1(O)CCCN(C(=O)c2cnc3c(ccn3-c3ccc(-c4nnc[nH]4)c(Cl)c3)c2)C1 (stereo not drawn) [Compound B-258] | < 0.1
O=C(c1cnc2c(ccn2-c2cccc(-c3nnc[nH]3)c2)c1)N1CCC[C@H](O)C1 [Compound B-260] | < 0.1
O=C(c1cnc2c(ccn2-c2ccc(-c3nnc[nH]3)c(Cl)c2)c1)N1CC[S+]([O-])CC1 [Compound B-261] | 0.1 to 1
COc1cc(-c2nnc[nH]2)cc(-n2ccc3cc(C(=O)N4CCC(F)(F)CC4)cnc32)c1 [Compound B-263] | < 0.1
